The source of these data is patent publication EP2818471A1, “Nitrogen bicyclic compounds as inhibitors for Scyl1 and Grk5” (Max-Planck-Gesellschaft zur Förderung der Wissenschaften …, priority 2013, dated 2014).

Read-outs that look alike come from different tables or passages of the source.

One test relates to beta-TC6 cell system. The test can be described thus: Comparison of insulin release with commercially available inhibitors, mouse/rat insulin ELISA. The test is classed as cell-based. The note with it: Mus musculus, Beta-TC6; 5µM, 2 h; DMSO = 0; Table 9. As to the method: Based on literature references, several commercially available inhibitors were compared with compounds according to the invention. […] Cells were cultured for 24 h before treated with the inventive compounds and control inhibitors for 2 h at 37 °C and 5 % (v/v) CO2. Insulin in the supernatant was detected by mouse/rat insulin ELISA.

Test [1] concerns beta-TC6 cells. The test can be described thus: 2-NBDG glucose uptake by flow cytometry. The following applies: Mus musculus, Beta-TC6, 1 h, read-out: Ratio of 2-NBDG uptake.
Method: (§1) Furthermore, as internal controls, samples of glucose free media, respectively glucose free media with test compound, were tested. Subsequently, cells were washed, trypsinized and harvested in ice-cold PBS before centrifuged at 1.6 x10^3 rpm at 4°C. Cells were analyzed by flow cytometry (FACS Calibur, BD Bioscience, respectively a BD Accuri® C6 Flow Cytometer).
(§2) To investigate the impact of the Grk5 inhibitors on Glucose uptake, cells were cultured 1 h in glucose free media supplied with 100 µM 2-NBDG at 37 °C and 5 % (v/v) CO2. Furthermore, as internal controls, samples of glucose free media, respectively glucose free media with test compounds, were measured. Fluorescence was analyzed by flow cytometer (FACS Calibur, BD Bioscience, respectively a BD Accuri® C6 Flow Cytometer).
The subject of test [2] is 3T3-L pre-adipocytes differentiated to matured adipocytes. Briefly: Insulin dependence of 2-NBDG uptake in matured adipocytes. The class given is cell-based. The following applies: compound added beside 10 µg/ml insulin, 1 h, 100 µM 2-NBDG; Figure 12. As to the method:
To investigate if the 2-NBDG uptake of the inventive compound inhibitors of Scyl1 and GRK5 are insulin dependent, 3T3-L pre-adipocytes were differentiated to matured adipocytes. Afterwards, cells were starved for 4 h before they were washed and glucose free media supplied with 100 µM 2-NBDG, in the presence and absence of 10 µg/ml insulin and either Cpd 10 (Scyl1) of Cpd 1 (Grk5) was added for 1 h at 37 °C. Furthermore, as internal controls, samples of glucose free media or glucose free media with compound were measured (data not shown). Fluorescence was analyzed by flow cytometer (FACS Calibur, BD Bioscience, respectively a BD Accuri® C6 Flow Cytometer). For evaluation, cells were gated using the side- and forward scatter SSC/FSC and quantified by excited at 488 and detected at 533 nm (FL1).

The test system of test [3] is beta-TC6 cells. The test can be described thus: Insulin release in high glucose medium, rat/mouse insulin ELISA. The class given is cell-based. The note with it: 2 h, high glucose (4.5 g/L). On the technique in general: ELISA stands for enzyme-linked immunosorbent assay.
The subject of test [4] is beta-TC6 cells. The test is described as above. The class given is cell-based. The following applies: for activation at 5 µM / fold induction at 5 µM: Mus musculus, Beta-TC6, 2 h; for fold induction at 5 µM: high glucose (4.5 g/L). Here is the method:
Cells were cultured overnight, washed with PBS and then treated with 5 µM of test compounds as well as non-inhibitor controls for 2 h in a high glucose (4.5 g/L) DMEM at 37°C and 5 % (v/v) CO2. Release of insulin was detected using a rat/mouse insulin ELISA.
After incubation, the supernatant of the beta-TC6 insulinoma cells was diluted 1:20, whereas the supernatants of the RIN-T2B-5AH were diluted 1:10. The insulin release was measured with rat/mouse insulin ELISA (Merck Millipore Darmstadt, Cat. # EZRMI-13K) by following the manufacture's protocol. The enzyme activity of the horseradish peroxidase of the immobilized biotinylated antibodies was monitored spectrophotometrically by the increased absorbency at 490 nm, and corrected by the absorbency at 610 nm.
Afterwards, the supernatant was analyzed for insulin using the rat/mouse insulin ELISA (Merck Millipore Darmstadt, Cat. # EZRMI-13K) by following the manufacture's protocol..
Cells were treated for 2 h in a high glucose (4.5 g/L) DMEM media at 37°C and 5 % (v/v) CO2. Insulin release was analyzed using the rat/mouse insulin ELISA.

The subject of test [5] is beta-TC6 cells. Briefly: Insulin HTRF assay, relative activity Ar normalized to sunitinib. The following applies: Mus musculus, normalized to positive control sunitinib (5 µM = 100%), Table 10. The class given is cell-based. The method, boiled down:
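Relative activity Ar was scaled between 0% and 100% controls, with sunitinib at 5 µM f.c. as reference. Insulin released by beta-TC6 cells was quantified by sandwich HTRF (Eu-cryptate/XL665 antibodies, 120 min RT). Cells had been seeded 24 or 48 h, then treated 2–4 h at 37°C in induction buffer, 0.5% DMSO.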
(In general: Time-resolved FRET reads energy transfer from a long-lived donor to a nearby acceptor.)

The subject of a further test is C2C12 cells. Briefly: 2-NBDG glucose uptake by flow cytometry. The following applies: for fold induction at 5 µM: Mus musculus, C2C12, 1 h, read-out: Ratio of 2-NBDG uptake.

Method for C2C12 cells: as §1, §2

As usually defined, the Emax is the maximal effect, on the per cent scale that the assay sets. Take `NC(=O)c1ccc(-c2cnc3ccc(Cc4ccc(F)cc4)nn23)cc1` [compound 1, 4-[6-[(4-fluorophenyl)methyl]imidazo[1,2-b]pyridazin-3-yl]benzamide]: the activation at 5 µM in the test on beta-TC6 cell system was 70.7%; in the test on beta-TC6 cells [4] (high glucose (4.5 g/L) DMEM, Example 9, Figure 6, ± SEM, read-out: increase of insulin release) it was 42.8 ± 6.8%. In addition, the fold induction at 5 µM in the test with beta-TC6 cells [1] was found to be 1.57; in the test with beta-TC6 cells [4] (0 µM = 1, Table 7) it was 1.81; in the test with C2C12 cells, 2.45. Also, the “additional (insulin independent) increase” value in test [2] is on record as 48.9 ± 7.2%. The fold induction at 2 µM in the test on beta-TC6 cells [3] (0 µM = 1, Table 7) was 1.24. Further, the fold induction at 10 µM in the test on beta-TC6 cells [3] (0 µM = 1, Table 7) amounted to 2.03. Besides, in the test with beta-TC6 cells [5], the Emax lay within 20 to 50%. In addition, the “uptake of 2-NBDG compared with negative control background” value in the test with C2C12 cells (C2C12, 1 h compound treatment, Figure 10) was “significantly increased uptake of 2-NBDG”.
Turning to `COc1cc(-c2ccc3ncc(-c4cccnc4)n3n2)cc(OC)c1OC` [compound 10, 3-(3-pyridyl)-6-(3,4,5-trimethoxyphenyl)imidazo[1,2-b]pyridazine], the activation at 5 µM in the test on beta-TC6 cell system was determined as 89.8%; in the test with beta-TC6 cells [4] (high glucose (4.5 g/L) DMEM, Example 4, Figure 2, read-out: increase of insulin release), 60.2 ± 8.9%. Further, the fold induction at 5 µM stood at 1.14 in the test with beta-TC6 cells [1]; 3.04 in the test with beta-TC6 cells [4] (0 µM = 1, Table 3); 1.55 with C2C12 cells. Also, in test [2], the “additional (insulin independent) increase” value was 18.2 ± 3.5%. This molecule also yielded a fold induction at 2 µM in the test on beta-TC6 cells [3] (0 µM = 1, Table 3) of 1.66. This molecule gave a fold induction at 10 µM with beta-TC6 cells [3] (0 µM = 1, Table 3) of 2.68. In the test on beta-TC6 cells [4] (5 µM, 2 h, high glucose (4.5 g/L) DMEM, Example 4, Figure 2), the “increase of insulin release” value came to 60.2 ± 8.9%. Moreover, the Emax with beta-TC6 cells [5] lay within 20 to 50%.
